From US8357811B2, “Crystalline forms of docetaxel and process for preparation thereof” (ScnioPharm Singapore PTE Ltd., priority 2006, dated 2013)

Assay: Stability of crystalline anhydrous docetaxel and docetaxel trihydrate in solvents (FIG. 2)
Assay type: physicochemical
Settings: for stability in co-water solvent: co-water solvent (ACN/water/acetic acid) vs non-water solvent
Text: FIG. 2 illustrates the stability of crystalline anhydrous docetaxel and docetaxel trihydrate.

Row | Structure (SMILES) | stability in acetonitrile compared with acetonitrile/water (9/1) (acetonitrile vs acetonitrile/water (9/1)) | stability compared with trihydrated form (1883-12-11, 1883-12-21, 2016-109-05) (in acetonitrile, FIG. 2) | stability compared with trihydrated form (see FIG. 2, solvent not stated at this place) | growth of 7-epi-docetaxel on addition of acetic acid (addition of acetic acid) | stability in co-water solvent | stability in co-water solvent (listed as Docetaxel) | generation of impurity 7-epi-docetaxel (co-water solvent vs non-water solvent)
1 | CC(=O)O[C@@]12CO[C@@H]1C[C@H](O)[C@@]1(C)C(=O)[C@H](O)C3=C(C)[C@@H](OC(=O)[C@H](O)[C@@H](NC(=O)OC(C)(C)C)c4ccccc4)C[C@@](O)([C@@H](OC(=O)c4ccccc4)[C@H]21)C3(C)C [anhydrous form of docetaxel, docetaxel] | more stable in acetonitrile than in acetonitrile/water (9/1) | more stable | more stable than trihydrated form | – | – | – | –
2 | CC(=O)O[C@@]12CO[C@@H]1C[C@H](O)[C@@]1(C)C(=O)[C@H](O)C3=C(C)[C@@H](OC(=O)[C@H](O)[C@@H](NC(=O)OC(C)(C)C)c4ccccc4)C[C@@](O)([C@@H](OC(=O)c4ccccc4)[C@H]21)C3(C)C [docetaxel] | – | – | – | can be suppressed by the addition of acetic acid | less stable in co-water solvent | more stable in non-water solvent than co-water solvent | generated more rapidly in co-water solvent than in non-water solvent
